# Test results reported in patent publication US20140051635A1, “COMBINATION THERAPY FOR TREATMENT OF CANCER” (UNIVERSITY OF SOUTH ALABAMA, priority 2011, published 2014).
# Like-named read-outs stand apart in the source and are kept apart here.
# Legend:
# [1] = system: breast cancer, patients pre-treated with doxorubicin; conditions: cited from earlier work
# [2] = system: SPARC expression in colon cancer cell lines and primary colon cancers; conditions: colon cancer cell lines and primary colon cancers with SPARC promoter hypermethylation; cited from earlier work
# [3] = system: advanced or metastatic solid tumors; conditions: human, in vivo
# From the text: Eligible patients include those with solid tumors that progressed or were stable as best response on at least one previous therapy. […] Further criteria included: female and male patients; age≧19 years; ECOG PS≦2; adequate bone marrow, liver and heart function; and signed written-informed consent.
# Serum and/or tissue samples, where appropriate, were collected for correlative studies.
# Outcome evaluation for primary endpoints included: type, incidence, severity, timing, seriousness, and relatedness of adverse events, and laboratory abnormalities; and objective response rate. Outcome evaluation for secondary endpoints included: progression-free survival (PFS); and expression of tissue SPARC protein. Statistical Analysis included the standard 3+3 design. Patients were accrued to each dose level in cohorts of up to 3-6. Escalation was continued until a dose limiting toxicity (DLT) was observed or the highest dose-level was reached. The best response, including complete response (CR), partial response (PR), stable disease (SD), or progression of disease (PD), for each patient was determined. Descriptive statistics were used to summarize all patient characteristics, treatment administration and compliance, and protein biomarkers. Safety data were determined for all patients receiving at least 1 dose of study treatment.
# [4] = mice; cited from earlier work
# [5] = rats; cited from earlier work
# [6] = cited from earlier work
# [7] = parenteral, administered weekly; cited from earlier work
# MDS = MDS patients; cited from earlier work
# AML = conditions: 27 patients assigned to azacitidine; cited from earlier work
# higher-risk MDS = conditions: cited from earlier work
compound,measurement,setting,value
CC(=O)O[C@@]12CO[C@@H]1C[C@H](O)[C@@]1(C)C(=O)[C@H](O)C3=C(C)[C@@H](OC(=O)[C@H](O)[C@@H](NC(=O)OC(C)(C)C)c4ccccc4)C[C@@](O)([C@@H](OC(=O)c4ccccc4)[C@H]21)C3(C)C [docetaxel],median overall survival,[1],11.4 months
same,median time to disease progression,[1],4.4 months
Nc1ncn([C@H]2C[C@H](O)[C@@H](CO)O2)c(=O)n1 [5Aza-dC],SPARC expression,[2],able to upregulate SPARC expression in most cases
Nc1ncn([C@@H]2O[C@H](CO)[C@@H](O)[C@H]2O)c(=O)n1 [azacitidine],maximum tolerated dose of azacitadine in this regimen,[3],75 mg/m^2
same,embryotoxicity and reproductive performance,[4],embryotoxic and reduced the reproductive performance
same,embryotoxicity and reproductive performance,[5],embryotoxic and reduced the reproductive performance
same,systemic IV clearance,[6]; 75 mg/m^2 IV,147 L/h
same,bioavailability for the SC dose,[6]; 75 mg/m^2 SC vs IV,~89%
same,tolerability,[6]; 75 mg/m^2 single SC injection or IV infusion over 10 minutes,generally well-tolerated
same,maximum tolerated doses,[7],up to 500 mg/m^2
same,partial remission,MDS,rare
same,median survival time,AML,19.3 months
same,median overall survival,"higher-risk MDS; 75 mg/m^2/day x 7 days in 28 day cycles, N=179",24.4 months
same,two-year survival,higher-risk MDS; azacitidine arm,51%
same,tolerability,higher-risk MDS; in vivo,well tolerated
